Laboratory results taken from article PMC5659721 (Journal of medicinal chemistry, 2017).

Tests used:
wild-type TTR [1] = biological target: T1, wild-type TTR (Homo sapiens, UniProt P02766); assay: Co-crystallography / X-ray diffraction analysis of TTR·ligand complexes; details: co-crystal structures
wild-type TTR [2] = biological target: T1, wild-type TTR; assay: Competitive fluorescence; assay type: binding; details: 5 vs 1, 6 vs 2
TTR = TTR (Homo sapiens, UniProt P02766); assay: Reversibility of binding assessed with mass spectrometry; details: mass spectrometry (Figure S3)
wild-type TTR [3] = biological target: T1, wild-type TTR; details: orientation in T4-binding site; cited from earlier work

Row | SMILES | covalent interaction / boronic ester formation with binding-pocket residues (wild-type TTR [1]) | other results
1 | OB(O)c1ccc(/C=C/c2cc(O)cc(O)c2)cc1 [Compound 2, 5-[(1E)-2-(4-Boronic acid)ethenyl]-1,3-benzenediol] | did not exhibit covalent interactions | 
2 | OB(O)c1ccc(/C=C/c2cc(O)cc(O)c2)c(Cl)c1 [Compound 4, 5-[(1E)-2-(2-Chloro-4-boronic Acid)ethenyl]-1,3-benzenediol] | did not exhibit covalent interactions | 
3 | O=C(O)c1cccc(/C=C/c2ccc(O)cc2)c1 [Compound 5, 3-[(1E)-2-(4-Hydroxyphenyl)ethenyl]-benzoic Acid] |  | Kd,2 fold higher than those of stilbenes 1 and 2, respectively (wild-type TTR [2]): 3 fold
4 | O=C(O)c1cccc(/C=C/c2ccc(B(O)O)cc2)c1 [Compound 6, 3-[(1E)-2-(4-Boronic acid)ethenyl]-benzoic Acid] | did not exhibit covalent interactions | Kd,2 fold higher than those of stilbenes 1 and 2, respectively (wild-type TTR [2]): 2 fold
5 | O=C(O)c1cccc(/C=C/c2ccc(B(O)O)cc2Cl)c1 [Compound 8, 3-[(1E)-2-(2-Chloro-4-boronic Acid)ethenyl]-benzoic] | did not exhibit covalent interactions | 
6 | OB(O)c1ccc(/C=C/c2ccc(B(O)O)cc2Cl)c(Cl)c1 [Compound 10, 1,1′-(1E)-(1,2-Ethenediyl)bis[2-chloro-4-boronic acid]-benzene] |  | reversibility of binding with TTR (TTR): reversible
7 | O=C(O)c1ccc2nc(-c3cc(Cl)cc(Cl)c3)oc2c1 [Compound 12, 2-(3,5-dichlorophenyl)-6-benzoxazolecarboxylic acid] |  | binding mode (wild-type TTR [3]): forward ^d
